Measurements published in patent US5041570A, “Photosensitive 4,4'-diazidostilbene derivative” (priority 1988, dated 1991).
Where a name gives a salt, the structure may show the parent alone.

Legend:
Type in all cases: physicochemical
[1] = Solubility of photosensitive agent in polyvinylpyrrolidone/ethylcellosolve solution; details: Table 2; 5 g polyvinylpyrrolidone in 106 g ethylcellosolve; sodium salt (*): solubility varied with crystal form
Description: The respective Amides synthesized in Examples 1 and 2 in amounts shown in Table 2 are dissolved in a solution comprising 5 g of polyvinylpyrrolidone (average molecular weight: 320,000) dissolved in 106 g of ethylcellosolve,to evaluate their solubility.

[2] = as above; details: Table 4; 5 g polyvinylpyrrolidone in 106 g ethylcellosolve; sodium salt (*): solubility varied with crystal form
[3] = Solubility in water
[4] = Solubility in 2.5% ethylcellosolve; parameters: key to Solubility in 2.5% ethylcellosolve, 25° C. / Solubility in 2.5% ethylcellosolve, 60° C.: Good: completely soluble; Fair: with small amounts of undissolved portion; Poor: with large amounts of undissolved portion; details: for Solubility in 2.5% ethylcellosolve, 25° C. / Solubility in 2.5% ethylcellosolve, 60° C.: Table 7; for solubility (comparison in words): compared to Comparative Examples 14-16, Table 7
Description: (§1) The compounds shown in Table 7 were prepared using the same procedures as in Example 16, and each compound was measured for solubilities in 2.5% ethylcellosolve and water to obtain the results shown in Table 7.

[5] = Solubility in ethylcellosolve solution containing 4.5% polyvinylpyrrolidone and compatibility with binder polymers; details: Example 20
Description: A 4,4'-diazidostilbene-2,2'-disulfonic acid aqueous solution was obtained using the same procedures as in Example 15. It was mixed with dibutylamine and the pH value adjusted to 9.0 to deposit crystals. The crystals were filtered, washed with water, and dried to obtain dibutylamine salt of 4,4'-diazidostilbene-2,2'-disulfonic acid (yield: 91.2%).

[6] = Solubility in water; remark: listed apart in the source
Description: as §1

[7] = listed as Comparative Example 15
[8] = listed as Comparative Example 16

[N-]=[N+]=Nc1ccc(C=Cc2ccc(N=[N+]=[N-])cc2S(=O)(=O)Nc2ccccc2)c(S(=O)(=O)Nc2ccccc2)c1 [Arylamide A, reference compound]
Solubility [1]: Poor

CCCCCCCNS(=O)(=O)c1cc(N=[N+]=[N-])ccc1C=Cc1ccc(N=[N+]=[N-])cc1S(=O)(=O)NCCCCCCC [Amide No. 11]
Solubility [2]: Good

[N-]=[N+]=Nc1ccc(C=Cc2ccc(N=[N+]=[N-])cc2S(=O)(=O)Nc2ccccc2)c(S(=O)(=O)Nc2ccccc2)c1 [Arylamide B, reference compound]
Solubility [2]: Poor

[N-]=[N+]=Nc1ccc(C=Cc2ccc(N=[N+]=[N-])cc2S(=O)(=O)[O-])c(S(=O)(=O)[O-])c1.[Na+].[Na+] [Sodium salt, sodium 4,4'-diazidostilbene-2,2'-disulfonate, reference compound]
Solubility (water, 25° C.) ([3]; Table 5): 3.3%
Solubility [1]: Fair
Solubility [2]: Fair
Solubility in 2.5% ethylcellosolve, 25° C. [4]: Fair
Solubility in 2.5% ethylcellosolve, 60° C. [4]: Good

CCCCCCCCNS(=O)(=O)c1cc(N=[N+]=[N-])ccc1C=Cc1ccc(N=[N+]=[N-])cc1S(=O)(=O)NCCCCCCCC [Amide No. 9]
Solubility [2]: Good

CCCCCN(CCCCC)S(=O)(=O)c1cc(N=[N+]=[N-])ccc1C=Cc1ccc(N=[N+]=[N-])cc1S(=O)(=O)N(CCCCC)CCCCC [Amide No. 15]
Solubility [2]: Good

CC(C)CNS(=O)(=O)c1cc(N=[N+]=[N-])ccc1C=Cc1ccc(N=[N+]=[N-])cc1S(=O)(=O)NCC(C)C [Amide No. 10]
Solubility [2]: Good

CC1CC(=Cc2ccc(N=[N+]=[N-])cc2S(=O)(=O)O)C(=O)C(=Cc2ccc(N=[N+]=[N-])cc2S(=O)(=O)O)C1 (stereo not shown) [Comparative Example 13, Na salt of 2,6-bis(4'-azidobenzal)-4-methyl-cyclohexanone-2,2'-disulfonic acid, reference compound]
Solubility (water, 25° C.) ([3]; Table 6): 0.9%

CC1CC(=Cc2ccc(N=[N+]=[N-])cc2S(=O)(=O)O)C(=O)C(=Cc2ccc(N=[N+]=[N-])cc2S(=O)(=O)O)C1 (stereo not shown) [Example 19, triethylamine salt of 2,6-bis-(4'-azidobenzal)-4-methyl-cyclohexanone-2,2'-disulfonic acid]
Solubility (water, 25° C.) ([3]; Table 6): ≥ 10%

[N-]=[N+]=Nc1ccc(C=Cc2ccc(N=[N+]=[N-])cc2S(=O)(=O)O)c(S(=O)(=O)O)c1 [compound 11, reference compound]
Solubility (water, 25° C.) ([3]; Table 5): 3.0%
Solubility in 2.5% ethylcellosolve, 25° C. [4, 7]: Poor
Solubility in 2.5% ethylcellosolve, 60° C. [4, 7]: Poor

CC1CC(=Cc2ccc(N=[N+]=[N-])cc2S(=O)(=O)O)C(=O)C(=Cc2ccc(N=[N+]=[N-])cc2S(=O)(=O)O)C1 (stereo not shown) [Example 18]
Solubility (water, 25° C.) ([3]; Table 6): 7.0%

COCCOCCNS(=O)(=O)c1cc(N=[N+]=[N-])ccc1C=Cc1ccc(N=[N+]=[N-])cc1S(=O)(=O)NCCOCCOC [Amide No. 7]
Solubility [1]: Good

[N-]=[N+]=Nc1ccc(C=Cc2ccc(N=[N+]=[N-])cc2S(=O)(=O)NCCOCCO)c(S(=O)(=O)NCCOCCO)c1 [Amide No. 4]
Solubility [1]: Good

CC(CCO)NS(=O)(=O)c1cc(N=[N+]=[N-])ccc1C=Cc1ccc(N=[N+]=[N-])cc1S(=O)(=O)NC(C)CCO (stereo not shown) [Amide No. 3]
Solubility [1]: Good

[N-]=[N+]=Nc1ccc(C=Cc2ccc(N=[N+]=[N-])cc2S(=O)(=O)O)c(S(=O)(=O)O)c1 [Example 20, dibutylamine salt of 4,4'-diazidostilbene-2,2'-disulfonic acid]
compatibility with binder polymers [5]: high in compatibility with binder polymers
soluble in an ethylcellosolve solution containing 4.5% polyvinylpyrrolidone [5]: ≥ 5%
solubility in water (in words) ([3]; Example 20): very low in solubility in water

[N-]=[N+]=Nc1ccc(C=Cc2ccc(N=[N+]=[N-])cc2S(=O)(=O)O)c(S(=O)(=O)O)c1 [Example 16]
Solubility (water, 25° C.) ([3]; Table 5): ≥ 10%

[N-]=[N+]=Nc1ccc(C=Cc2ccc(N=[N+]=[N-])cc2S(=O)(=O)O)c(S(=O)(=O)O)c1 [Example 22]
Solubility in water, 25° C. ([6]; Table 7): ≥ 10%
Solubility in 2.5% ethylcellosolve, 25° C. [4]: Good
Solubility in 2.5% ethylcellosolve, 60° C. [4]: Good
solubility (comparison in words) [4]: good solubilities

CCOCCOS(=O)(=O)c1cc(N=[N+]=[N-])ccc1C=Cc1ccc(N=[N+]=[N-])cc1S(=O)(=O)OCCOCC [Ester B, reference compound]
Solubility [1]: Good

[N-]=[N+]=Nc1ccc(C=Cc2ccc(N=[N+]=[N-])cc2S(=O)(=O)NCCCO)c(S(=O)(=O)NCCCO)c1 [Amide No. 1]
Solubility [1]: Good

[N-]=[N+]=Nc1ccc(C=Cc2ccc(N=[N+]=[N-])cc2S(=O)(=O)O)c(S(=O)(=O)O)c1 [Ammonium salt, reference compound]
Solubility in water, 25° C. ([6]; Table 7, listed as Comparative Example 16): 18%
Solubility (water, 25° C.) ([3]; Table 5, listed as Comparative Example 12): 1.8%
Solubility [1]: Poor
Solubility [2]: Poor
Solubility in 2.5% ethylcellosolve, 25° C. [4, 8]: Poor
Solubility in 2.5% ethylcellosolve, 60° C. [4, 8]: Poor

[N-]=[N+]=Nc1ccc(C=Cc2ccc(N=[N+]=[N-])cc2S(=O)(=O)O)c(S(=O)(=O)O)c1 [Example 21]
Solubility in water, 25° C. ([6]; Table 7): 6.5%
Solubility in 2.5% ethylcellosolve, 25° C. [4]: Good
Solubility in 2.5% ethylcellosolve, 60° C. [4]: Good
solubility (comparison in words) [4]: good solubilities

CCCNS(=O)(=O)c1cc(N=[N+]=[N-])ccc1C=Cc1ccc(N=[N+]=[N-])cc1S(=O)(=O)NCCC [Lower alkyl amide A, reference compound]
Solubility [2]: Poor

[N-]=[N+]=Nc1ccc(C=Cc2ccc(N=[N+]=[N-])cc2S(=O)(=O)O)c(S(=O)(=O)O)c1 [Example 17, triethylamine salt of 4,4'-diazidostilbene-2,2'-disulfonic acid]
Solubility (water, 25° C.) ([3]; Table 5): ≥ 10%

CCCCN(C)S(=O)(=O)c1cc(N=[N+]=[N-])ccc1C=Cc1ccc(N=[N+]=[N-])cc1S(=O)(=O)N(C)CCCC [Amide No. 14]
Solubility [2]: Good

CCOCCNS(=O)(=O)c1cc(N=[N+]=[N-])ccc1C=Cc1ccc(N=[N+]=[N-])cc1S(=O)(=O)NCCOCC [Amide No. 8]
Solubility [1]: Good

[N-]=[N+]=Nc1ccc(C=Cc2ccc(N=[N+]=[N-])cc2S(=O)(=O)NCCO)c(S(=O)(=O)NCCO)c1 [Amide No. 2]
Solubility [1]: Good

CCCCOS(=O)(=O)c1cc(N=[N+]=[N-])ccc1C=Cc1ccc(N=[N+]=[N-])cc1S(=O)(=O)OCCCC [Ester C, reference compound]
Solubility [2]: Good
